Measurements taken from ChEMBL document CHEMBL2390855, “Labdane-type diterpenoids from the fruits of Vitex trifolia” (J Nat Prod, 2013).

Experiments:
Format in all cases: functional, cell-based
ZR-75-30 = test: Cytotoxicity against human ZR75-30 cells after 72 hrs by MTT assay; conditions: ZR-75-30, 72 h
HCT-116 = test: Cytotoxicity against human HCT116 cells after 72 hrs by MTT assay; conditions: HCT-116, 72 h
HL-60 = test: Cytotoxicity against human HL60 cells after 72 hrs by MTT assay; conditions: HL-60, 72 h
A549 = test: Cytotoxicity against human A549 cells after 72 hrs by MTT assay; conditions: A549, 72 h

Measured: IC50

C[C@@H]1C[C@@H](O)[C@H]2C(C)(C)CCC[C@]2(C)[C@@]1(O)CCC1=CC(=O)OC1
> 5 µg/mL: all assays above

CC1=C(CC[C@@H](C)C(=O)CCC2=CC(=O)OC2)C(C)(C)CCC1
> 5 µg/mL: all assays above

CO[C@@H]1C[C@@]2(CC[C@@]3(O2)[C@H](C)CC[C@H]2C(C)(C)[C@@H](OC(C)=O)CC[C@@]23C)[C@H](OC)O1 (relative stereo)
> 5 µg/mL: all assays above

CC(=O)O[C@@H]1CC(C)=C(CCC2=CC(=O)OC2)[C@@]2(C)CCCC(C)(C)[C@H]12 (relative stereo)
> 5 µg/mL: all assays above

C[C@@H]1CC=C2C(C)(C)CCC[C@]2(C)[C@@]1(O)CCC1=CC(=O)OC1 (relative stereo)
> 5 µg/mL: all assays above

C[C@@H]1C[C@@H](O)[C@H]2C(C)(C)CCC[C@]2(C)[C@@]12CC[C@]1(COC(=O)C1)O2 (relative stereo)
> 5 µg/mL: all assays above

C[C@@H]1CC=C2C(C)(C)CCC[C@]2(C)[C@@]12CC[C@]1(COC(=O)C1)O2 (relative stereo)
> 5 µg/mL: all assays above

CC(=O)O[C@@H]1C[C@@H](C)[C@]2(CC[C@]3(COC(=O)C3)O2)[C@@]2(C)CCCC(C)(C)[C@H]12 [PREVITEXILACTONE]
> 5 µg/mL: all assays above

CC(=O)O[C@@H]1C[C@@H](C)[C@](O)(CCc2ccoc2)[C@@]2(C)CCCC(C)(C)[C@H]12 [ROTUNDIFURAN]
> 5 µg/mL: all assays above

CC(=O)O[C@@H]1C[C@@H](C)[C@](O)(CCC2=CC(=O)OC2O)[C@@]2(C)CCCC(C)(C)[C@H]12 (stereo partly drawn) [VITEAGNUSIN I]
> 5 µg/mL: all assays above

CC(=O)O[C@@H]1C[C@@H](C)[C@](O)(CCC2=CC(=O)OC2)[C@@]2(C)CCCC(C)(C)[C@H]12 [VITEXILACTONE]
> 5 µg/mL: all assays above

CO[C@H]1C[C@@]2(CC[C@@]3(O2)[C@H](C)CC[C@H]2C(C)(C)[C@@H](OC(C)=O)CC[C@@]23C)[C@H](OC)O1 [VITEXTRIFOLIN B]
> 5 µg/mL: all assays above
